Assay results taken from patent publication US20020183313A1, “1,4-benzodiazepinones and their uses as CCK antagonists” (Fujisawa Pharmaceutical Co., Ltd., priority 1996, published 2002).

Tests used:
[1] = target: T1, guinea-pig cerebral cortical membranes (125I-CCK-8 binding) (Cavia porcellus, UniProt H0VZC5); assay: [125I]CCK-8 binding to guinea-pig cerebral cortical membranes; conditions: test compound 1×10^−8 M; 50 pM 125I-CCK-8; 60 minutes at 37° C.
T1 construct: from tissue; host or cells: guinea-pig cerebral cortex membranes
T1 sequence (H0VZC5 1-426): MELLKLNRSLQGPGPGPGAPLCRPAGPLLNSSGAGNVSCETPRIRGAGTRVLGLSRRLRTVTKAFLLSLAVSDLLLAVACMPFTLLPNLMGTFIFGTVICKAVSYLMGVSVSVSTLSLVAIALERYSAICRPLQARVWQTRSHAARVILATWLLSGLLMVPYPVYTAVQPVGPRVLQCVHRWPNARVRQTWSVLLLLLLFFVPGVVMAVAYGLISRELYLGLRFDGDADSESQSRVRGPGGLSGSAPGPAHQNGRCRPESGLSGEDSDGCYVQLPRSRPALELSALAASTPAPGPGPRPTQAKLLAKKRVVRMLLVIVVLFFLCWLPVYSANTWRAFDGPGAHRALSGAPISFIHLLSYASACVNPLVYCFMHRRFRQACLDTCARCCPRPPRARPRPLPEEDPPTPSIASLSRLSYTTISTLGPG
Description: [^125I]CCK-8 binding to guinea-pig cerebral cortical membranes
Guinea-pigs were killed by decapitation and bled to death. Cerebral cortex was removed, minced in a small quantity of 50 mM Tris-HCl buffer (pH 7.4), and homogenized in 20 vol. of the buffer by a glass-teflon homogenizer. The homogenate was centrifuged at 30000× g (16000 rpm) for 10 minutes. The pellet was then resuspended in the same buffer by a glass-teflon homogenizer and recentrifuged at 30000× g for 10 minutes. This procedure (washings) was repeated twice more. The final pellet (membrane) was suspended in incubation medium (see below) so as to obtain a final protein concentration of 4 mg/ml and frozen at −80° C. All manipulations were done at 0-4° C.
(ii) Receptor Binding Assay
The composition of incubation medium was as follows:
10 mM HEPES (pH 6.5), 5 mM MgCl2, 1 mM EGTA, 130 mM NaCI and 0.25 mg/ml bacitracin. Frozen membranes were thawed and aliquots (400 μg, protein) were incubated for 60 minutes under shaking at 37° C. in plastic tubes in 500 μL of incubation medium with 50 pM ^125I-CCK-8 in the presence or absence of test compound (1×10^−8 M). […] After washing the filter with 50 mM Tris-HCl (pH 7.4) buffer containing 0.1% BSA, the radioactivity of the filter was countered. […] The effect of the test compound was expressed as % inhibition of specific ′^125I-CCK-8 binding.

mice = assay: Gastric emptying in mice; type: in vivo
Description: (§1) Receptor binding studies and gastric emptying in mice
(§2) The tests were carried out in accordance with the method described at pages 571 to 572 in the following literature;
(§3) Harunobu Ito, Hajime Sogabe et al., The Journal of Pharmacology and Experimental Therapeutics, 571, No.2, Vol.268 (1994).

CCK-A = target: T2, CCK-A (UniProt P30551); assay: Receptor binding studies, CCK-A
T2 sequence (P30551 1-444): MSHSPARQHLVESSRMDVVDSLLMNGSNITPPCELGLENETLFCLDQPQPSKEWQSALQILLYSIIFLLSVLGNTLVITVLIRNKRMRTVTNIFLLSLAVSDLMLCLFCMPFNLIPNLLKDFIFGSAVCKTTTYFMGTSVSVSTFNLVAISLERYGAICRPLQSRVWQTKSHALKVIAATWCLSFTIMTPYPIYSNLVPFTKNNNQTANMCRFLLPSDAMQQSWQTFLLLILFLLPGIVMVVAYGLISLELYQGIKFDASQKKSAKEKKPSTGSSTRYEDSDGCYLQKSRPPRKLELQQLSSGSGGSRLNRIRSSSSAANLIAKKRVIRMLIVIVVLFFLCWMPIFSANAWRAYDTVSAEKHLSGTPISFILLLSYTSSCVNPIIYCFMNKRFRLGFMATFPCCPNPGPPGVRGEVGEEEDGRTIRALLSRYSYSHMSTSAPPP
Description: as §1, §2, §3

CCK-B [2] = assay: Receptor binding studies, CCK-B; conditions: ratio IC50 CCK-A / IC50 CCK-B
Description: as §1, §2, §3

CCK-B [3] = target: T3, CCK-B (UniProt H0VZC5); assay: Receptor binding studies, CCK-B
T3 construct: IC50 (nM) for CCK-B
T3 sequence (H0VZC5 1-426): T1 sequence (H0VZC5 1-426)
Description: as §1, §2, §3

Structure (SMILES)	Inhibition (%) of specific 125I-CCK-8 binding [1] [%]	Gastric emptying ID50 (mice) [mg/kg]	melting point [°C]	IC50 (CCK-A) [nM]	selectivity A/B (CCK-B [2])	IC50 (CCK-B [3]) [nM]
CC(=O)c1sccc1CN1C(=O)C(NC(=O)Nc2cccc(C)c2)N=C(C(C)C)c2ccccc21 (racemic) [(2)]	97	–	–	–	–	–
CCC1=NC(NC(=O)Nc2cccc(C)c2)C(=O)N(CC(=O)C2CCCCC2)c2c(C)cccc21 (racemic) [(B), N-[(3RS)-1-cyclohexylcarbonylmethyl-2,3-dihydro-5-ethyl-9-methyl-2-oxo-1H-1,4-benzodiazepin-3-yl]-N′-(3-methylphenyl)urea]	–	0.4	161.2 to 164	0.9	0.56	1.6
Cc1cccc(NC(=O)NC2N=C(C3CC3)c3cccc(C)c3N(CC(=O)C3CCCCC3)C2=O)c1 (racemic) [(D), N-[(3RS)-1-cyclohexylcarbonylmethyl-5-cyclopropyl-2,3-dihydro-9-methyl-2-oxo-1H-1,4-benzodiazepin-3-yl]-N′-(3-methylphenyl)urea]	–	1.8	143.6 to 144.2	2	1.82	1.1
CC1=NC(NC(=O)Nc2cccc(C)c2)C(=O)N(CC(=O)C2CCCCC2)c2c(C)cccc21 (racemic) [Compound (A), N-[(3RS)-1-cyclohexylcarbonylmethyl-2,3-dihydro-5,9-dimethyl-2-oxo-1H-1,4-benzodiazepin-3-yl]-N′-(3-methylphenyl)urea]	–	0.4	179.2 to 180.9	1.1	0.30	3.7
Cc1cccc(NC(=O)NC2N=C(CC(C)C)c3cccc(C)c3N(CC(=O)N3CCCCCCC3)C2=O)c1 (racemic) [Example 69, N-[(3RS)-1-(Azacyclooctan-1-yl)carbonylmethyl-2,3-dihydro-5-isobutyl-9-methyl-2-oxo-1H-1,4-benzodiazepin-3-yl]-N′-(3-methylphenyl)urea]	–	–	131.6 to 133.4	–	–	–
Cc1cccc(NC(=O)NC2N=C(C3CCCCC3)c3cccc(C)c3N(CC(=O)N3CCCCCCC3)C2=O)c1 (racemic) [Example 70, N-[(3RS)-1-(Azacyclooctan-1-yl)carbonylmethyl-5-cyclohexyl-2,3-dihydro-9-methyl-2-oxo-1H-1,4-benzodiazepin-3-yl]-N′-(3-methylphenyl)urea]	–	–	153.6 to 155.3	–	–	–
Cc1cccc(NC(=O)NC2N=C(CO)c3cccc(C)c3N(CC(=O)N3CCCCCCC3)C2=O)c1 (racemic) [Example 71-2, N-[(3RS)-1-(Azacyclooctan-1-yl)carbonylmethyl-2,3-dihydro-5-hydroxymethyl-9-methyl-2-oxo-1H-1,4-benzodiazepin-3-yl]-N′-(3-methylphenyl)urea]	–	–	214.5 to 216	–	–	–
CC1=NC(NC(=O)Nc2cccc(C)c2)C(=O)N(CC(=O)C2CCCCCCC2)c2c(C)cccc21 (racemic) [Example 72, N-[(3RS)-1-Cyclooctylcarbonylmethyl-2,3-dihydro-5,9-dimethyl-2-oxo-1H-1,4-benzodiazepin-3-yl]-N′-(3-methylphenyl)urea]	–	–	162.9 to 164.4	–	–	–
Cc1cccc(NC(=O)NC2N=C(CC(C)C)c3cccc(C)c3N(CC(=O)C3CCCCC3)C2=O)c1 (racemic) [Example 73, N-[(3RS)-1-Cyclohexylcarbonylmethyl-2,3-dihydro-5-isobutyl-9-methyl-2-oxo-1H-1,4-benzodiazepin-3-yl]-N′-(3-methylphenyl)urea]	–	–	152.3 to 154.8	–	–	–
CCC1=N[C@@H](NC(=O)Nc2cccc(C)c2)C(=O)N(CC(=O)C2CCCCC2)c2c(C)cccc21 [(C), N-[(3R)-1-cyclohexylcarbonylmethyl-5-ethyl-9-methyl-2-oxo-2,3-dihydro-1H-1,4-benzodiazepin-3-yl]-N′-(3-methylphenyl)urea]	–	0.23	–	0.3	0.30	1
